Experimental data from US20250129021A1, “SMALL MOLECULE PROTEIN SYNTHESIS MODULATORS” (Interdict Bio, Inc., priority 2023, published 2025).

Experiments:
Format in all cases: biochemical
MYC = test: In vitro transcription-translation (IVTT) assay, MYC reporter; details: IVTT assay, HeLa S3 lysate, MYC reporter, normalized sfGFP/mCherry ratio; half-log dilutions 30 μM-0.1 μM, 2 hrs at 30° C.
Method in brief: (§1)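 Reporter: mCherry, P2A, then 3×FLAG-target peptide-sfGFP fusion, IRES-initiated; HeLa S3 lysate IVTT; cpd dilutions 30 μM−0.1 μM half-log in 100% DMSO (dilution-plate conc); DNA added last; 2 h, 30° C; PBS quench.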

CCND1 = test: In vitro transcription-translation (IVTT) assay, CCND1 reporter; details: IVTT assay, HeLa S3 lysate, sfGFP/mCherry ratio
Method in brief: as §1

MCL-1 = test: In vitro transcription-translation (IVTT) assay, MCL-1 reporter; details: IVTT assay, HeLa S3 lysate, sfGFP/mCherry ratio; read-out: MCL1 IC50
Method in brief: as §1

CCNTB1 = test: In vitro transcription-translation (IVTT) assay, CCNTB1 reporter; details: HeLa S3 lysate, sfGFP/mCherry ratio
Protocol: In vitro transcription-translation assay setup: Each assay includes a master mix containing lysate and shared components, a 96-well plate containing compound titrations for testing, a 96-well DNA plate with reporter constructs to be tested, 96-well skirted PCR plates, and 96-well flat-bottom, black, fluorescent assay plates. Reaction materials setup: (A) Master mix—15 mL conical tube (3 mL of HeLa S3 Lysate described above; 0.6 mL of ThermoFisher Accessory Proteins (#88882); 1.2 ml of ThermoFisher Reaction Mix (#88882); 0.54 mL of nuclease-free Water); (B) 96-Well Master Mix+Compound Plate (Half-log dilutions (30 μM−0.1 μM) of 4 compounds of interest are prepared in 100% DMSO); 96-Well DNA Plate (Five DNA constructs are plated into single columns within the plate. Row 1 of the column contains nuclease free H2O, all other wells contain 110 ng/μL plasmid DNA). Reactions are started by mixing 155 μL of master mix and 3.5 μL of compound serial dilutions, then 9.1 μL of master mix+compound mixture is aliquoted across 5 96-well plates. Reactions begin with final addition of 2 μL of DNA for a 11.1 μL reaction volume in each well. The entire plate is sealed, and incubated for 2 hrs at 30° C. After 2 hrs, quench the assay using 45 μL of PBS, and transfer 50 μL to a flat-bottom black microplate Quantify the sfGFP and mCherry signals from each well on each plate, taking 3 reads of each plate, and perform data analysis below.
In vitro transcription-translation assay data analysis: Each plate is read three times in channels for both sfGFP and mCherry signals. The average signal across these 3 reads is then calculated for further analysis. Control wells containing no DNA reporter are subtracted from reporter wells in the same column to remove auto-fluorescence of the lysate. Then, the ratio of sfGFP/mCherry is calculated per well, and these ratios are averaged across the triplicate experiments on the same plate. Finally, the ratio of each titration concentration is normalized to the no drug control to create the normalized stalling metric. The error on this measurement is determined by propagating error through the averaging and normalization steps. Values are plotted and fit for IC50 determination for each test sequence and titration of compound.

SMILES | IC50 (CCND1) [µM] | IC50 (MCL-1) [µM] | IC50 (CCNTB1) [µM] | IC50 (MYC) [µM]
O=C(NCC[C@@H]1CCCN1)O[C@@H]1[C@@H](O)CN[C@@H]1Cc1ccc(-c2ccc(Cl)s2)cc1 [V191891, (2R,3S,4S)-2-{[4-(5-chlorothiophen-2-yl)phenyl]methyl}-4-hydroxypyrrolidin-3-yl N-{2-[(2S)-pyrrolidin-2-yl]ethyl}carbamate] | 10 to 20 | < 10 | < 10 | < 10
COc1ccc(C[C@H]2NC[C@H](O)[C@H]2OC(=O)NCC[C@@H]2CCCNC2)cc1 [V191903, (2R,3S,4S)-4-hydroxy-2-[(4-methoxyphenyl)methyl]pyrrolidin-3-yl N-{2-[(3S)-piperidin-3-yl]ethyl}carbamate] | 10 to 20 | < 10 | < 10 | < 10
O=C(NCCC1CCNCC1)O[C@@H]1[C@@H](O)CN[C@@H]1Cc1ccc(-c2ccc3c(c2)CC(F)(F)C3)cc1 [V192053, (2R,3S,4S)-2-{[4-(2,2-difluoro-1,3-dihydroinden-5-yl)phenyl]methyl}-4-hydroxypyrrolidin-3-yl N-[2-(piperidin-4-yl)ethyl]carbamate] | > 30 | 20 to 30 | 10 to 20 | > 30
O=C(NCCC1CCNCC1)O[C@@H]1[C@@H](O)CN[C@@H]1Cc1ccc(-c2ccc(C(F)(F)F)cc2)cc1 [V192052, (2R,3S,4S)-4-hydroxy-2-{[4′-(trifluoromethyl)-[1,1′-biphenyl]-4-yl]methyl}pyrrolidin-3-yl N-[2-(piperidin-4-yl)ethyl]carbamate] | > 30 | > 30 | > 30 | > 30
O=C(NCc1cccc(-n2ccnc2)c1)O[C@@H]1[C@@H](O)CN[C@@H]1Cc1ccc(-c2cnco2)cc1 [V192167, (2R,3S,4S)-4-hydroxy-2-{[4-(1,3-oxazol-5-yl)phenyl]methyl}pyrrolidin-3-yl N-{[3-(imidazol-1-yl)phenyl]methyl}carbamate] | < 10 | < 10 | < 10 | < 10
COc1ccc(C[C@H]2NC[C@H](O)[C@H]2OC(=O)NCC[C@H]2CCCNC2)cc1 [V192046, (2R,3S,4S)-4-hydroxy-2-[(4-methoxyphenyl)methyl]pyrrolidin-3-yl N-{2-[(3R)-piperidin-3-yl]ethyl}carbamate] | 10 to 20 | < 10 | < 10 | < 10
COc1ccc(C[C@H]2NC[C@H](O)[C@H]2OC(=O)NCC[C@H]2CCC3(CC3)N2)cc1 [V192043, (2R,3S,4S)-4-hydroxy-2-[(4-methoxyphenyl)methyl]pyrrolidin-3-yl N-{2-[(5R)-4-azaspiro[2.4]heptan-5-yl]ethyl}carbamate] | > 30 | > 30 | > 30 | > 30
O=C(NCc1ccc2c(c1)CCNC2)O[C@@H]1[C@@H](O)CN[C@@H]1Cc1ccc(-c2cnco2)cc1 [V192056, (2R,3S,4S)-4-hydroxy-2-{[4-(1,3-oxazol-5-yl)phenyl]methyl}pyrrolidin-3-yl N-(1,2,3,4-tetrahydroisoquinolin-6-ylmethyl)carbamate] | < 10 | < 10 | < 10 | < 10
COc1ccc(C[C@H]2NC[C@H](O)[C@H]2OC(=O)NCc2ccc(C3(N)CC3)cc2)cc1 [V192069, (2R,3S,4S)-4-hydroxy-2-[(4-methoxyphenyl)methyl]pyrrolidin-3-yl N-{[4-(1-aminocyclopropyl)phenyl]methyl}carbamate] | < 10 | < 10 | < 10 | < 10
COc1ccc(C[C@H]2NC[C@H](O)[C@H]2OC(=O)NCC[C@]2(C)CCCN2)cc1 [V191921, (2R,3S,4S)-4-hydroxy-2-[(4-methoxyphenyl)methyl]pyrrolidin-3-yl N-{2-[(2S)-2-methylpyrrolidin-2-yl]ethyl}carbamate] | 10 to 20 | < 10 | < 10 | < 10
COc1ccc(C[C@H]2NC[C@H](O)[C@H]2OC(=O)NCc2ccnc(N3CC4(CCC4)C3)c2)cc1 [V192068, (2R,3S,4S)-4-hydroxy-2-[(4-methoxyphenyl)methyl]pyrrolidin-3-yl N-[(2-{2-azaspiro[3.3]heptan-2-yl}pyridin-4-yl)methyl]carbamate] | 10 to 20 | < 10 | < 10 | < 10
O=C(NCc1cccc(F)c1)O[C@@H]1[C@@H](O)CN[C@@H]1Cc1cccnc1 [V190519, (2R,3S,4S)-4-hydroxy-2-(pyridin-3-ylmethyl)pyrrolidin-3-yl N-[(3-fluorophenyl)methyl]carbamate] | > 30 | > 30 | 20 to 30 | 20 to 30

The next lines start with results.

IC50 (CCND1) [µM] | IC50 (MCL-1) [µM] | IC50 (CCNTB1) [µM] | SMILES | IC50 (MYC) [µM]
< 10 | < 10 | < 10 | O=C(NCCC1CCNCC1)O[C@@H]1[C@@H](O)CN[C@@H]1Cc1ccc(-c2ccc(F)c(F)c2)cc1 [V192051, (2R,3S,4S)-2-({3′,4′-difluoro-[1,1′-biphenyl]-4-yl}methyl)-4-hydroxypyrrolidin-3-yl N-[2-(piperidin-4-yl)ethyl]carbamate] | < 10
> 30 | > 30 | > 30 | O=C(NCc1cccc(F)c1)O[C@@H]1[C@@H](O)CN[C@@H]1Cc1ccc(-c2ccc(C(F)(F)F)cc2)cc1 [V192083, (2R,3S,4S)-4-hydroxy-2-{[4′-(trifluoromethyl)-[1,1′-biphenyl]-4-yl]methyl}pyrrolidin-3-yl N-[(3-fluorophenyl)methyl]carbamate] | > 30
< 10 | < 10 | < 10 | O=C(NCC1CC1)O[C@@H]1[C@@H](O)CN[C@@H]1Cc1ccc(-c2cnco2)cc1 [V192262, (2R,3S,4S)-4-hydroxy-2-{[4-(1,3-oxazol-5-yl)phenyl]methyl}pyrrolidin-3-yl N-(cyclopropylmethyl)carbamate] | < 10
> 30 | 10 to 20 | < 10 | COc1ccc(C[C@H]2NC[C@H](O)[C@H]2OC(=O)NCC[C@@H]2CC(F)(F)CN2)cc1 [V190526, (2R,3S,4S)-4-hydroxy-2-[(4-methoxyphenyl)methyl]pyrrolidin-3-yl N-{2-[(2R)-4,4-difluoropyrrolidin-2-yl]ethyl}carbamate] | 10 to 20
> 30 | 20 to 30 | 10 to 20 | COc1ccc(C[C@H]2NC[C@H](O)[C@H]2OC(=O)N[C@@H](C)c2ccccc2)cc1 [V191971, (2R,3S,4S)-4-hydroxy-2-[(4-methoxyphenyl)methyl]pyrrolidin-3-yl N-[(1S)-1-phenylethyl]carbamate] | 10 to 20
> 30 | > 30 | 20 to 30 | COc1ccc(C[C@H]2NC[C@H](O)[C@H]2OC(=O)NCC[C@H]2CCCN2C)cc1 [V192042, (2R,3S,4S)-4-hydroxy-2-[(4-methoxyphenyl)methyl]pyrrolidin-3-yl N-{2-[(2R)-1-methylpyrrolidin-2-yl]ethyl}carbamate] | > 30
> 30 | 20 to 30 | 20 to 30 | O=C(NCc1ccnc(N2CCC2)c1)O[C@@H]1[C@@H](O)CN[C@@H]1Cc1ccc(-c2ccc(C(F)(F)F)cc2)cc1 [V192071, (2R,3S,4S)-4-hydroxy-2-((4′-(trifluoromethyl)-[1,1′-biphenyl]-4-yl)methyl)pyrrolidin-3-yl ((2-(azetidin-1-yl)pyridin-4-yl)methyl)carbamate] | 20 to 30
10 to 20 | < 10 | < 10 | O=C(NCC[C@@H]1CCCN1)O[C@@H]1[C@@H](O)CN[C@@H]1Cc1ccc(-c2ccc3c(c2)CC(F)(F)C3)cc1 [V191961, (2R,3S,4S)-2-{[4-(2,2-difluoro-1,3-dihydroinden-5-yl)phenyl]methyl}-4-hydroxypyrrolidin-3-yl N-{2-[(2S)-pyrrolidin-2-yl]ethyl}carbamate] | 10 to 20
< 10 | < 10 | < 10 | COc1ccc(C[C@H]2NC[C@H](O)[C@H]2OC(=O)NCc2ccnc(N3CCC3)n2)cc1 [V192073, (2R,3S,4S)-4-hydroxy-2-[(4-methoxyphenyl)methyl]pyrrolidin-3-yl N-{[2-(azetidin-1-yl)pyrimidin-4-yl]methyl}carbamate] | < 10
